Measurements published in ChEMBL document CHEMBL4680140, “Minor chemical modifications of the aminosteroid derivative RM-581 lead to major impact on its anticancer activity, metabolic stability and aqueous solubility” (Eur J Med Chem, 2020).
≈ marks a conversion by molar mass, not a printed value.

Key:
Assay type in all cases: physicochemical
[1] = Solubility of compound in PBS at pH 7.4
[2] = Solubility of compound in PBS at pH 7.4 at 300 uM after 24 hrs by HPLC-UV analysis
[3] = Solubility of compound in PBS at pH 7.4 by shake flask method

Structure (SMILES)	solubility [1] [µg/mL]	solubility at 24 h, 300 µM [2] [µg/mL]	solubility thermodynamic [3] [µg/mL]
CC(C)C(=O)Nc1ccc([N+](=O)[O-])c(C(F)(F)F)c1 [FLUTAMIDE]	19.9 (≈ 72 µM)	19.9 (≈ 72 µM)	–
COc1ccc(Cl)cc1C(=O)NCCc1ccc(S(=O)(=O)NC(=O)NC2CCCCC2)cc1 [GLYBURIDE]	–	6.7 (≈ 13.6 µM)	5.6 (≈ 11.3 µM)
